Measurements taken from PMC6269118, “Populene D Analogues: Design, Concise Synthesis and Antiproliferative Activity” (Molecules, 2012).
Values after ≈ are worked out from the molar mass of the structure shown. Like-named read-outs stand apart in the source and are kept apart here.

Assays:
OVCAR-3 (ovarian) cells = assay: Antiproliferative sulforhodamine B assay, OVCAR-3; assay type: cell-based; conditions: Homo sapiens, OVCAR-3 ovary, 48 h treatment, SRB; for IC100: read-out: Total growth inhibition (TGI)
Experimental: (§1) The populene D analogues were tested at concentrations between 0.25 and 250 µg/mL and doxorubicin (DOX 0.025–25 µg/mL) was used as positive control. […] To analyze the GI50 parameter, mean log GI50 was calculated by conversion of the GI50 values for each tumor cell line tested (not including the normal cell line HaCat) against a test compound and then these values were averaged.
(§2) Stock cultures were grown in 5 mL of RPMI 1640 (GIBCO BRL, Life Technologies) supplemented with 5% of fetal bovine serum. Penicillin:streptomycin (1,000 μg mL^−1:1,000 UI mL^‑1, 1 mL L^−1) was added to the experimental cultures.
(§3) Afterwards cells were fixed with 50% trichloroacetic acid and cell proliferation determined by spectrophotometric quantification (540 nm) of cellular protein content using sulforhodamine B assay[20]. Doxorubicin (0.025–25 mg/mL) was used as positive control. Three measurements were obtained at the beginning of incubation (time zero, T0) and 48 h post-incubation for compound-free (C) and tested (T) cells. Cell proliferation was determined according to the equation 100 × [(T − T0)/C − T0], for T0 < T ≤ C, and 100 × [(T − T0)/T0], for T ≤ T0 and a concentration-response curve for each cell line was plotted and, from these curves, GI50 (concentration causing 50% growth inhibition) and TGI (concentration that promotes total growth inhibition) were determined by means of non-linear regression analysis using software ORIGIN 8.0 (OriginLab Corporation) [20, 21] The average activity (mean of log GI50) of each compound tested was also determined using MS Excel software.

[1] = Antiproliferative sulforhodamine B assay, HaCat normal cell line; assay type: cell-based, human; conditions: human; HaCat normal immortalized keratinocytes, 48 h treatment, SRB
Experimental: (§4) The in vitro antiproliferative activity of populene analogues 2a–e and 3a–e was investigated toward nine human tumor cell lines [CNS (U251), breast (MCF-7), ovarian (NCI-ADR/RES, OVCAR-03), renal (786-0), non-small cell lung (NCI-H460), prostate (PC-3), colon (HT-29) and leukemia (k-562)] and one human normal cell line (HaCat, human keratinocytes). The populene D analogues were tested at concentrations between 0.25 and 250 µg/mL and doxorubicin (DOX 0.025–25 µg/mL) was used as positive control. […] To analyze the GI50 parameter, mean log GI50 was calculated by conversion of the GI50 values for each tumor cell line tested (not including the normal cell line HaCat) against a test compound and then these values were averaged.
as §2, §3

[2] = tested on: HaCat (immortalized human keratinocytes); assay: as above; assay type: cell-based; conditions: 48 h treatment, SRB
Experimental: as §4, §2, §3

[3] = tested on: NCI-ADR/RES (ovarian expressing phenotype multiple drugs resistance) cells; assay: Antiproliferative sulforhodamine B assay, NCI-ADR/RES; assay type: cell-based; conditions: Homo sapiens, NCI-ADR/RES drug resistant ovary, 48 h treatment, SRB; for IC100: read-out: Total growth inhibition (TGI)
Experimental: as §4, §2, §3

K-562 (leukemia) cells = assay: Antiproliferative sulforhodamine B assay, K-562; assay type: cell-based; conditions: Homo sapiens, K562, 48 h treatment, SRB; for IC100: read-out: Total growth inhibition (TGI)
Experimental: as §4
(§5) Cells in 96-well plates (100 μL cells/well) were exposed to various concentrations of compounds 2a–d and 3a–d diluted in DMSO (0.25, 2.5, 25 and 250 μg/mL) at 37 °C, 5% of CO2 for 48 h. […] Afterwards cells were fixed with 50% trichloroacetic acid and cell proliferation determined by spectrophotometric quantification (540 nm) of cellular protein content using sulforhodamine B assay[20]. Doxorubicin (0.025–25 mg/mL) was used as positive control. Three measurements were obtained at the beginning of incubation (time zero, T0) and 48 h post-incubation for compound-free (C) and tested (T) cells. Cell proliferation was determined according to the equation 100 × [(T − T0)/C − T0], for T0 < T ≤ C, and 100 × [(T − T0)/T0], for T ≤ T0 and a concentration-response curve for each cell line was plotted and, from these curves, GI50 (concentration causing 50% growth inhibition) and TGI (concentration that promotes total growth inhibition) were determined by means of non-linear regression analysis using software ORIGIN 8.0 (OriginLab Corporation) [20, 21] The average activity (mean of log GI50) of each compound tested was also determined using MS Excel software.

HT-29 (colon) cells = assay: Antiproliferative sulforhodamine B assay, HT-29; assay type: cell-based; conditions: Homo sapiens, 48 h treatment, SRB; for IC100: read-out: Total growth inhibition (TGI)
Experimental: as §1, §2, §3

MCF-7 (breast) cells = assay: Antiproliferative sulforhodamine B assay, MCF-7; assay type: cell-based; conditions: Homo sapiens, MCF7, MCF-7 mammary, 48 h treatment, SRB; for IC100: read-out: Total growth inhibition (TGI)
Experimental: as §4, §2, §3

786-0 (renal) cells = assay: Antiproliferative sulforhodamine B assay, 786-0; assay type: cell-based; conditions: Homo sapiens, 786-0 kidney, 48 h treatment, SRB; for IC100: read-out: Total growth inhibition (TGI)
Experimental: as §4, §2, §3

PC-3 (prostate) cells = assay: Antiproliferative sulforhodamine B assay, PC-3; assay type: cell-based; conditions: Homo sapiens, Prostate cell, 48 h treatment, SRB; for IC100: read-out: Total growth inhibition (TGI)
Experimental: as §1, §2, §3

U251 (glioma) cells = assay: Antiproliferative sulforhodamine B assay, U251; assay type: cell-based; conditions: Homo sapiens, U-251, 48 h treatment, SRB; for IC100: read-out: Total growth inhibition (TGI)
Experimental: as §4, §2, §3

[4] = tested on: nine human tumor cell lines; assay: Average antiproliferative activity over the tumor cell line panel (NCI criteria); assay type: cell-based; conditions: for GI50: Homo sapiens, 48 h; for Cytostatic activity classified in words by NCI criteria on mean logGI50: weak 1.1-1.5, moderate 0-1.1, potent <0, inactive >1.5
Experimental: as §4, §5

[5] = tested on: NCI-H460 (lung, non-small cells) cells; assay: Antiproliferative sulforhodamine B assay, NCI-H460; conditions: for GI50: Homo sapiens, NCI-H460, 48 h; for Total growth inhibition (TGI): NCI-H460 lung, 48 h treatment, SRB
Experimental: as §1, §2, §3

[6] = average of logGI50 (GI50 in μg/mL) over tumor cell lines tested, not including HaCat, read-out: Mean logGI50 (converted)
[7] = class symbol by NCI's criteria on mean logGI50, read-out: Mean logGI50 activity class (NCI's criteria)

Row | Compound | GI50 (OVCAR-3 (ovarian) cells) | IC100 (OVCAR-3 (ovarian) cells) | GI50 at 48 h [1] | Total growth inhibition (TGI) [2] | GI50 [3] | IC100 [3] | GI50 (K-562 (leukemia) cells) | IC100 (K-562 (leukemia) cells) | melting point | GI50 (HT-29 (colon) cells) | IC100 (HT-29 (colon) cells) | GI50 (MCF-7 (breast) cells) | IC100 (MCF-7 (breast) cells) | GI50 (786-0 (renal) cells) | IC100 (786-0 (renal) cells) | GI50 (PC-3 (prostate) cells) | GI50 (U251 (glioma) cells) | IC100 (U251 (glioma) cells) | GI50 [4, 6] | GI50 [4, 7] | also measured
1 | COc1cccc2c1CCC1=C2C(C)COC1(C)C (centres unmarked) [2a, 4,5,6-Tetrahydro-7-methoxy-1,4,4-trimethyl-1H-benzo[f]isochromene] | 25 µg/mL (≈ 96.8 µM) | 52.3 µg/mL | 25 µg/mL (≈ 96.8 µM) | 66.9 µg/mL | 25 µg/mL (≈ 96.8 µM) | 83.5 µg/mL | 3.1 µg/mL (≈ 12 µM) | > 250 µg/mL | 65 to 67 °C | 25 µg/mL (≈ 96.8 µM) | 39.1 µg/mL | 25 µg/mL (≈ 96.8 µM) | 51.3 µg/mL | 25 µg/mL (≈ 96.8 µM) | 50.6 µg/mL | 25 µg/mL (≈ 96.8 µM) | 25 µg/mL (≈ 96.8 µM) | 52 µg/mL | 14.8 µg/mL (≈ 57.2 µM) | 12.6 to 31.6 µg/mL (≈ 48.7 to 122 µM) | IC100 (PC-3 (prostate) cells): 64.6 µg/mL
2 | COc1ccc2c(c1)CCC1=C2C(C)COC1(C)C (centres unmarked) [2b, 2,4,5,6-Tetrahydro-8-methoxy-1,4,4-trimethyl-1H-benzo[f]isochromene] | 24.5 µg/mL (≈ 94.8 µM) | 56.2 µg/mL | 26.1 µg/mL (≈ 101 µM) | 54.4 µg/mL | 26.8 µg/mL (≈ 104 µM) | 104 µg/mL | 9.6 µg/mL (≈ 37.2 µM) | > 250 µg/mL | 89.5 to 91.3 °C | 6.6 µg/mL (≈ 25.5 µM) | 33 µg/mL | 23.2 µg/mL (≈ 89.8 µM) | 46.9 µg/mL | 25.5 µg/mL (≈ 98.7 µM) | 44 µg/mL | 27 µg/mL (≈ 105 µM) | 24.6 µg/mL (≈ 95.2 µM) | 53.5 µg/mL | 15.1 µg/mL (≈ 58.6 µM) | 12.6 to 31.6 µg/mL (≈ 48.7 to 122 µM) | IC100 (PC-3 (prostate) cells): 41.4 µg/mL
3 | COc1ccc2c(c1)C1=C(CC2)C(C)(C)OCC1C (centres unmarked) [2c, 2,4,5,6-Tetrahydro-9-methoxy-1,4,4-trimethyl-1H-benzo[f]isochromene] | 25 µg/mL (≈ 96.8 µM) | 67 µg/mL | 25 µg/mL (≈ 96.8 µM) | 32.0 µg/mL | 25 µg/mL (≈ 96.8 µM) | 66.3 µg/mL | 25 µg/mL (≈ 96.8 µM) | 128 µg/mL |  | 25 µg/mL (≈ 96.8 µM) | 41.8 µg/mL | 25 µg/mL (≈ 96.8 µM) | 45.3 µg/mL | 25 µg/mL (≈ 96.8 µM) | 36.1 µg/mL | 25 µg/mL (≈ 96.8 µM) | 25 µg/mL (≈ 96.8 µM) | 40 µg/mL | 16.2 µg/mL (≈ 62.8 µM) | 12.6 to 31.6 µg/mL (≈ 48.7 to 122 µM) | IC100 (PC-3 (prostate) cells): 69.2 µg/mL
4 | COc1cc2c(cc1OC)C1=C(CC2)C(C)(C)OCC1C (centres unmarked) [2d, 2,4,5,6-Tetrahydro-8,9-dimethoxy-1,4,4-trimethyl-1H-benzo[f]isochromene] | 193 µg/mL (≈ 671 µM) | > 250 µg/mL | > 250 µg/mL | >250 µg/mL | 101 µg/mL (≈ 349 µM) | > 250 µg/mL | 84.6 µg/mL (≈ 293 µM) | > 250 µg/mL | 115 to 117 °C | 23.1 µg/mL (≈ 80.1 µM) | > 250 µg/mL | 38.8 µg/mL (≈ 135 µM) | > 250 µg/mL | 45.8 µg/mL (≈ 159 µM) | > 250 µg/mL | 71.4 µg/mL (≈ 248 µM) | > 250 µg/mL | > 250 µg/mL | > 50.1 µg/mL | > 31.6 µg/mL | IC100 (PC-3 (prostate) cells): > 250 µg/mL; Cytostatic activity classified in words by NCI criteria on mean logGI50 [4]: inactive
5 | CC1COC(C)(C)C2=C1c1cccc(O)c1CC2 (centres unmarked) [3a, 1,4,4-Trimethyl-1,4,5,6-tetrahydro-2H-benzo[f]isochromen-7-ol] | > 250 µg/mL | > 250 µg/mL | > 250 µg/mL | >250 µg/mL | > 250 µg/mL | > 250 µg/mL | > 250 µg/mL | > 250 µg/mL | 139.2 to 140.3 °C | > 250 µg/mL | > 250 µg/mL | > 250 µg/mL | > 250 µg/mL | 37.3 µg/mL (≈ 153 µM) | > 250 µg/mL | > 250 µg/mL | > 250 µg/mL | > 250 µg/mL | > 209 µg/mL | > 31.6 µg/mL | GI50 [5]: > 250 µg/mL; Total growth inhibition (TGI) [5]: >250 µg/mL; IC100 (PC-3 (prostate) cells): > 250 µg/mL; Cytostatic activity classified in words by NCI criteria on mean logGI50 [4]: inactive
6 | COc1cc2c(cc1O)C1=C(CC2)C(C)(C)OCC1C (centres unmarked) [3d, 8-Methoxy-1,4,4-trimethyl-1,4,5,6-tetrahydro-2H-benzo[f]isochromen-9-ol] | 24.3 µg/mL (≈ 88.6 µM) | 69.9 µg/mL | 4.2 µg/mL (≈ 15.3 µM) | 160.7 µg/mL | 5.2 µg/mL (≈ 19 µM) | 37.6 µg/mL |  |  | 141 to 143 °C | 6 µg/mL (≈ 21.9 µM) | 32.3 µg/mL | 24.6 µg/mL (≈ 89.7 µM) | 58.2 µg/mL | 24.1 µg/mL (≈ 87.8 µM) | 47.8 µg/mL |  | 23.1 µg/mL (≈ 84.2 µM) | 45.9 µg/mL | 14.5 µg/mL (≈ 52.7 µM) | 12.6 to 31.6 µg/mL (≈ 45.9 to 115 µM) | GI50 [5]: 45.1 µg/mL (≈ 164 µM); Total growth inhibition (TGI) [5]: >250 µg/mL; Cytostatic activity classified in words by NCI criteria on mean logGI50 [4]: weak
7 | CC1COC(C)(C)C2=C1c1cc(O)c(O)cc1CC2 (centres unmarked) [3e, 1,4,4-Trimethyl-1,4,5,6-tetrahydro-2H-benzo[f]isochromene-8,9-diol] | 3.9 µg/mL (≈ 15 µM) | 34.4 µg/mL | 4.2 µg/mL (≈ 16.1 µM) | >250 µg/mL | 5.7 µg/mL (≈ 21.9 µM) | > 250 µg/mL |  |  | 122 to 123 °C | 19.5 µg/mL (≈ 74.9 µM) | 39 µg/mL | 5.5 µg/mL (≈ 21.1 µM) | 41.6 µg/mL | 5.6 µg/mL (≈ 21.5 µM) | 19.4 µg/mL |  | 19.6 µg/mL (≈ 75.3 µM) | 28.4 µg/mL | 8.13 µg/mL (≈ 31.2 µM) | 1 to 12.6 µg/mL (≈ 3.84 to 48.4 µM) | GI50 [5]: 17.4 µg/mL (≈ 66.8 µM); Total growth inhibition (TGI) [5]: >250 µg/mL; Cytostatic activity classified in words by NCI criteria on mean logGI50 [4]: moderate
8 | COc1cccc2c1C(=O)c1c(O)c3c(c(O)c1C2=O)C[C@@](O)(C(=O)CO)C[C@@H]3O[C@H]1C[C@H](N)[C@H](O)[C@H](C)O1 [Doxorubicine, doxorubicin, reference compound] | 0.26 µg/mL (≈ 0.478 µM) | 3.9 µg/mL | 0.23 µg/mL (≈ 0.423 µM) | 0.67 µg/mL | 1.3 µg/mL (≈ 2.39 µM) | 25 µg/mL | 0.4 µg/mL (≈ 0.736 µM) | 25 µg/mL |  | 0.22 µg/mL (≈ 0.405 µM) | 25 µg/mL | 0.21 µg/mL (≈ 0.386 µM) | 8.8 µg/mL | 0.04 µg/mL (≈ 0.0736 µM) | 0.62 µg/mL | 0.27 µg/mL (≈ 0.497 µM) | 0.062 µg/mL (≈ 0.114 µM) | 1.1 µg/mL | 0.166 µg/mL (≈ 0.305 µM) | < 1 µg/mL | GI50 [5]: < 0.025 µg/mL; Total growth inhibition (TGI) [5]: 0.025 µg/mL; IC100 (PC-3 (prostate) cells): 4.4 µg/mL
